Bounds are passed on as bounds.

Consider 20 compounds from patent US9163011B2, “Oxazine derivatives and their use in the treatment of disease” (NOVARTIS AG, priority 2011, dated 2015).

Test [1] can be described thus: Test 4: Inhibition of Cellular Release of Amyloid Peptide 1-40. The format is cell-based, Chinese hamster. As to conditions: Cricetulus griseus; CHO cells with human APP, 24 hours with compound; read-out: Test 4 Amyloid-β1-40 release IC50. The method, then: The cells are plated at a density of 8000 cells/well into 96-well microtiter plates and cultivated for 24 hours in DMEM cell culture medium containing 10% FCS. The test compound is added to the cells at various concentrations, and the cells are cultivated for 24 hours in the presence of the test compound. […] The potency of the compound is calculated from the percentage of inhibition of amyloid peptide release as a function of the test compound concentration.

Test [2] has as its target Human BACE-2 (Homo sapiens (Human), UniProt Q9Y5Z0). Put plainly: Test 2: Inhibition of Human BACE-2. The class given is biochemical. As to conditions: recombinant BACE-2, pH 4.5, 1 hour preincubation. The method, then: Test 2: Inhibition of Human BACE-2
(§1) Recombinant BACE-2 (extracellular domain, expressed in baculovirus and purified using standard methods) at 0.1 to 1 nM concentrations is incubated with the test compound at various concentrations for 1 hour at room temperature in 100 mM acetate buffer, pH 4.5, containing 0.1% CHAPS. Activity was measured using a final concentration of 3 μM of the fluorescence-quenched substrate Q-C(HSO3)-Ile-Asp-Leu-Ala-Val-Leu-Asp-HN—CH2—CH2-Mca, where Q=2-nitro-5-amino benzoic acid and Mca=7-methoxy-4-coumarinyl acetic acid. Catalytic turnover was monitored in a Spectramax Gemini fluorescence plate reader (Molecular Devices) in black 96-well microplates using excitation/emission wavelength of 325 nm and 400 nm, respectively. Fluorescence increase was followed for 15 min, in 1 minute's intervals. The fluorescence/time slopes were calculated from duplicate wells and from wells without inhibitor and the IC50 values were calculated using a logistic 4-parameter model.

In test [3] the target is Human BACE-1 (Homo sapiens (Human), UniProt P56817). Put plainly: Test 1: Inhibition of Human BACE-1. The format is biochemical. As to conditions: recombinant BACE-1, pH 4.5, 1 hour preincubation. The method, then: Test 1: Inhibition of Human BACE-1
Chain of Human BACE-1 (P56817 46-457): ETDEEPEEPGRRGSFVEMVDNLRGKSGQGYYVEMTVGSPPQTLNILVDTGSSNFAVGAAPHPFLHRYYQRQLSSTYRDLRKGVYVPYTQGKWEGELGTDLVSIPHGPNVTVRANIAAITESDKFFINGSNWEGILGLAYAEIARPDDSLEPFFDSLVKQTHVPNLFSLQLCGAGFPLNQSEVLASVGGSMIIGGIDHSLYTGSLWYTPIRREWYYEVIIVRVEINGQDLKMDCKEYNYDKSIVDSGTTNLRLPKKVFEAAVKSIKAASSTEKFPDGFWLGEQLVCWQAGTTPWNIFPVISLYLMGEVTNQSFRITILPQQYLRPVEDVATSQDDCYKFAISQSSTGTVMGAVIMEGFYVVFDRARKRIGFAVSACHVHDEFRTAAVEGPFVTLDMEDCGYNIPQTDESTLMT
as §1, with “BACE-1” for “BACE-2”

Chain of Human BACE-2 (Q9Y5Z0 63-473): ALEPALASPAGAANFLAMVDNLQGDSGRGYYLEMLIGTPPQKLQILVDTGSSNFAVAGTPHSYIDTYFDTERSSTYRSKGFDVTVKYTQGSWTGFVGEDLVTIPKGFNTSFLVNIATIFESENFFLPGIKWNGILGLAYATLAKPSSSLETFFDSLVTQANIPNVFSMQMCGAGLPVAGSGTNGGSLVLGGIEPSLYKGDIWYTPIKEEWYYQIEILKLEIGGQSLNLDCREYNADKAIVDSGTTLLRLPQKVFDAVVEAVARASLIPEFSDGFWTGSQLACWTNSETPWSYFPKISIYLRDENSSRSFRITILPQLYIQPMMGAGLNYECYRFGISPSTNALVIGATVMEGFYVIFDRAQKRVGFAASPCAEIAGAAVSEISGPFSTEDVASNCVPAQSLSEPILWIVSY

`COCC#Cc1cnc(C(=O)Nc2ccc(F)c([C@@]3(C)N=C(N)OCC3(F)F)n2)c(N)c1` [Example 14, 3-Amino-5-(3-methoxy-prop-1-ynyl)-pyridine-2-carboxylic acid [6-((R)-2-amino-5,5-difluoro-4-methyl-5,6-dihydro-4H-[1,3]oxazin-4-yl)-5-fluoro-pyridin-2-yl]-amide]: in test [1], the IC50 (as a rule, the point on the concentration scale where inhibition reaches its midpoint) was 540 nM.
Turning to `C[C@]1(c2nc(NC(=O)c3ncc(F)cc3N)ccc2F)N=C(N)OCC1(F)F` [Example 18, 3-Amino-5-fluoro-pyridine-2-carboxylic acid [6-((R)-2-amino-5,5-difluoro-4-methyl-5,6-dihydro-4H-[1,3]oxazin-4-yl)-5-fluoro-pyridin-2-yl]-amide], the IC50 in test [2] was found to be 120 nM; in test [3], 330 nM; in test [1] it was 88 nM.
Regarding `CC(F)(F)c1cnc(C(=O)Nc2ccc(F)c([C@@]3(C)N=C(N)OCC3(F)F)n2)c(N)n1` [Example 37, 3-Amino-5-(1,1-difluoro-ethyl)-pyrazine-2-carboxylic acid [6-((R)-2-amino-5,5-difluoro-4-methyl-5,6-dihydro-4H-[1,3]oxazin-4-yl)-5-fluoro-pyridin-2-yl]-amide], the results for the IC50 in test [2], in test [3] and in test [1] were more than 10000 nM, 64 nM and 310 nM, respectively.
With `C[C@]1(c2nc(NC(=O)c3ccc(C#N)cn3)ccc2F)N=C(N)OCC1(F)F` [Example 35, 5-Cyano-pyridine-2-carboxylic acid [6-((R)-2-amino-5,5-difluoro-4-methyl-5,6-dihydro-4H-[1,3]oxazin-4-yl)-5-fluoro-pyridin-2-yl]-amide], the IC50 was 260 nM in test [2], 54 nM in test [3] and 14 nM in test [1].
Turning to `COc1cnc(C(=O)Nc2ccc(F)c([C@@]3(C)N=C(N)OCC3(F)F)n2)c(C)c1` [Example 13, 5-Methoxy-3-methyl-pyridine-2-carboxylic acid [6-((R)-2-amino-5,5-difluoro-4-methyl-5,6-dihydro-4H-[1,3]oxazin-4-yl)-5-fluoro-pyridin-2-yl]-amide], the IC50 in test [1] came out at 82 nM.
As for `COCC#Cc1cnc(C(=O)Nc2ccc(F)c([C@@]3(C)N=C(N)OCC3(F)F)n2)c(Cl)c1` [Example 21, 3-Chloro-5-(3-methoxy-prop-1-ynyl)pyridine-2-carboxylic acid [6-((R)-2-amino-5,5-difluoro-4-methyl-5,6-dihydro-4H-[1,3]oxazin-4-yl)-5-fluoro-pyridin-2-yl]-amide], the IC50 in test [2] was 840 nM; in test [3] it was 83 nM; in test [1], 81 nM.
As for `COCC[C@@]1(c2nc(NC(=O)c3ncc(C#N)cc3C)ccc2F)N=C(N)OCC1(F)F` [Example 5], the IC50 in test [1] was more than 10000 nM.
Regarding `C[C@]1(c2nc(NC(=O)c3ncc(OCC(F)F)nc3N)ccc2F)N=C(N)OCC1(F)F` [Example 11, 3-Amino-5-(2,2-difluoro-ethoxy)-pyrazine-2-carboxylic acid [6-((R)-2-amino-5,5-difluoro-4-methyl-5,6-dihydro-4H-[1,3]oxazin-4-yl)-5-fluoro-pyridin-2-yl]-amide], the IC50 in test [2] was 2900 nM; in test [3], 830 nM; in test [1] it was 440 nM.
On to `C[C@]1(c2nc(NC(=O)c3ncc(C(F)(F)F)nc3N)ccc2F)N=C(N)OCC1(F)F` [Example 8, 3-Amino-5-trifluoromethyl-pyrazine-2-carboxylic acid [6-((R)-2-amino-5,5-difluoro-4-methyl-5,6-dihydro-4H-[1,3]oxazin-4-yl)-5-fluoro-pyridin-2-yl]-amide], for which the IC50 in test [2] worked out at 1400 nM; in test [3], 160 nM; in test [1], 140 nM.
In the case of `C[C@]1(c2nc(NC(=O)c3ncc(OCCCF)nc3N)ccc2F)N=C(N)OCC1(F)F` [Example 12, 3-Amino-5-(3-fluoro-propoxy)-pyrazine-2-carboxylic acid [6-((R)-2-amino-5,5-difluoro-4-methyl-5,6-dihydro-4H-[1,3]oxazin-4-yl)-5-fluoro-pyridin-2-yl]-amide], the IC50 in test [2] is more than 10000 nM; in test [3], 1200 nM; in test [1], 310 nM.
As for `CC(F)(F)c1cnc(C(=O)Nc2ccc(F)c([C@@]3(C)N=C(N)OCC3(F)F)n2)c(Cl)c1` [Example 36, 3-Chloro-5-(1,1-difluoro-ethyl)-pyridine-2-carboxylic acid [6-((R)-2-amino-5,5-difluoro-4-methyl-5,6-dihydro-4H-[1,3]oxazin-4-yl)-5-fluoro-pyridin-2-yl]-amide], the IC50 in test [1] turned out to be 58 nM.
As for `COCCc1cnc(C(=O)Nc2ccc(F)c([C@@]3(C)N=C(N)OCC3(F)F)n2)c(N)n1` [Example 29, 3-Amino-5-(2-methoxy-ethyl)-pyrazine-2-carboxylic acid [6-((R)-2-amino-5,5-difluoro-4-methyl-5,6-dihydro-4H-[1,3]oxazin-4-yl)-5-fluoro-pyridin-2-yl]-amide], the IC50 was determined as 5600 nM in test [2], 150 nM in test [3] and 70 nM in test [1].
Taken in the same sequence, the figures for `C[C@]1(c2nc(NC(=O)c3ncc(Cl)cc3N)ccc2F)N=C(N)OCC1(F)F` [Example 19, 3-Amino-5-chloro-pyridine-2-carboxylic acid [6-((R)-2-amino-5,5-difluoro-4-methyl-5,6-dihydro-4H-[1,3]oxazin-4-yl)-5-fluoro-pyridin-2-yl]-amide] were 48 nM, 60 nM and 45 nM.
In the same order, the values of `C[C@]1(c2nc(NC(=O)c3nccnc3N)ccc2F)N=C(N)OCC1(F)F` [Example 31, 3-Amino-pyrazine-2-carboxylic acid [6-((R)-2-amino-5,5-difluoro-4-methyl-5,6-dihydro-4H-[1,3]oxazin-4-yl)-5-fluoro-pyridin-2-yl]-amide] are 490 nM, 540 nM and 180 nM.
For the compound `C[C@]1(c2nc(NC(=O)c3ncc(C(F)F)nc3N)ccc2F)N=C(N)OCC1(F)F` [Example 22, 3-Amino-5-difluoromethyl-pyrazine-2-carboxylic acid [6-((R)-2-amino-5,5-difluoro-4-methyl-5,6-dihydro-4H-[1,3]oxazin-4-yl)-5-fluoro-pyridin-2-yl]-amide], the IC50 is 580 nM in test [2], 190 nM in test [3] and 60 nM in test [1].
Take `COCCOc1cnc(C(=O)Nc2ccc(F)c([C@@]3(C)N=C(N)OCC3(F)F)n2)c(N)n1` [Example 16, 3-Amino-5-(2-methoxy-ethoxy)-pyrazine-2-carboxylic acid [6-((R)-2-amino-5,5-difluoro-4-methyl-5,6-dihydro-4H-[1,3]oxazin-4-yl)-5-fluoro-pyridin-2-yl]amide]: the IC50 in test [2] stood at 8900 nM; in test [3], 120 nM.
Regarding `C[C@]1(c2nc(NC(=O)c3ncccc3Cl)ccc2F)N=C(N)OCC1(F)F` [Example 20, 3-Chloro-pyridine-2-carboxylic acid [6-((R)-2-amino-5,5-difluoro-4-methyl-5,6-dihydro-4H-[1,3]oxazin-4-yl)-5-fluoro-pyridin-2-yl]-amide], the IC50 in test [2] was determined as 95 nM; in test [3], 360 nM; in test [1], 88 nM.
`Cc1cc(C#N)cnc1C(=O)Nc1ccc(F)c([C@@]2(C)N=C(N)OCC2(F)F)n1` [Example 1, 5-Cyano-3-methyl-pyridine-2-carboxylic acid [6-((R)-2-amino-5,5-difluoro-4-methyl-5,6-dihydro-4H-[1,3]oxazin-4-yl)-5-fluoro-pyridin-2-yl]-amide]: the IC50 in test [2] is 66 nM; in test [3], 12 nM; in test [1], 7 nM.
`C[C@]1(c2nc(NC(=O)c3ncc(C#CCO)cc3N)ccc2F)N=C(N)OCC1(F)F` [Example 17, 3-Amino-5-(3-hydroxy-prop-1-ynyl)-pyridine-2-carboxylic acid [6-((R)-2-amino-5,5-difluoro-4-methyl-5,6-dihydro-4H-[1,3]oxazin-4-yl)-5-fluoro-pyridin-2-yl]-amide]: the IC50 in test [2] came to 8200 nM; in test [3] it was 240 nM; in test [1], 62 nM.
As to `C[C@]1(c2nc(NC(=O)c3ncc(C#CCO)cc3Cl)ccc2F)N=C(N)OCC1(F)F` [Example 32, 3-Chloro-5-(3-hydroxy-prop-1-ynyl)-pyridine-2-carboxylic acid [6-((R)-2-amino-5,5-difluoro-4-methyl-5,6-dihydro-4H-[1,3]oxazin-4-yl)-5-fluoro-pyridin-2-yl]-amide], the values for the IC50 in test [2], in test [3] and in test [1] were 930 nM, 60 nM and 19 nM, respectively.
